Measurements from ChEMBL document CHEMBL1166012, “New aryldithiolethione derivatives as potent histone deacetylase inhibitors” (Bioorg Med Chem, 2010).

How the values were obtained:
Histone deacetylase = assay: Inhibition of HDAC in human HeLa cells extracts after 60 mins by fluorescence assay; type: cell-based
A549 = assay: Antiproliferative activity against human A549 cells after 48 hrs; type: functional, cell-based; details: A549, 48 h

O=C(CCCCCCC(=O)Nc1ccccc1)NOC(=O)c1ccc(-c2cssc2=S)cc1
IC50 (Histone deacetylase): 1.19 µM
IC50 (A549): 1.68 µM

O=C(O)c1ccc(-c2cssc2=S)cc1
IC50 (Histone deacetylase): 100 µM
IC50 (A549): 103 µM

O=C(CCCCCCC(=O)Oc1ccc(-c2cc(=S)ss2)cc1)NO
IC50 (Histone deacetylase): 10 µM
IC50 (A549): 56 µM

O=C(CCCCCCOc1ccc(-c2cc(=S)ss2)cc1)Nc1ccccc1
IC50 (Histone deacetylase): 918.7 µM
IC50 (A549): 60.2 µM

O=C(CCCCOc1ccc(-c2cc(=S)ss2)cc1)Nc1ccccc1
IC50 (Histone deacetylase): 50 µM
IC50 (A549): > 1000 µM

O=C(CCCCOc1ccc(-c2cc(=S)ss2)cc1)NO
IC50 (Histone deacetylase): 0.08 µM
IC50 (A549): 5.4 µM

Nc1ccccc1NC(=O)CCCCCCOc1ccc(-c2cc(=S)ss2)cc1
IC50 (Histone deacetylase): 32 µM
IC50 (A549): 31.7 µM

O=C(CCCCCCC(=O)Nc1ccccc1)NOC(=O)c1csc(=S)s1
IC50 (Histone deacetylase): 0.25 µM
IC50 (A549): 3.4 µM

O=C(CCCCCCC(=O)Oc1ccc(-c2cc(=S)ss2)cc1)Nc1ccccc1
IC50 (Histone deacetylase): 100 µM
IC50 (A549): > 1000 µM

O=C(CCCCCCOc1ccc(-c2cc(=S)ss2)cc1)NO
IC50 (Histone deacetylase): 0.01 µM
IC50 (A549): 6.1 µM

COc1cc(-c2cc(=S)ss2)ccc1OCC(=O)O
IC50 (Histone deacetylase): 82.85 µM
IC50 (A549): 880 µM

O=C(O)c1csc(=S)s1 [ACS 5]
IC50 (Histone deacetylase): 46.4 µM
IC50 (A549): > 1000 µM
